Reference: patent US10022376B2 (Pfizer Inc., priority 2014, dated 2018)
Where a name gives a salt, the structure may show the parent alone.

How the values were obtained:
[1] = tested on: rhIL-2 stimulated STAT5 phosphorylation in isolated human T cells; test: Human T Cell Assay: Inhibition of pSTAT5; assay type: cell-based
Description: Human T Cell Assay: Inhibition of pSTAT5
An assay measuring the efficacy of JAK inhibitors on the functional response of recombinant human interleukin-2 (rhIL-2) stimulated STAT5 phosphorylation in isolated human T cells.
Human whole blood from individual donors was collected from the phlebotomy unit on-site. Peripheral venous blood (30-60 mL) from healthy volunteers of either sex was used as the source of T cells. T cell isolation from venous whole blood is routinely performed in a class II microbiological safety cabinet. Each sample was collected into between 3 and 6 10 mL Sodium Heparin Vacutainer tubes (BD #367874). The blood was poured into sterile 50 mL conicals (Corning #430828) and incubated with the T cell Rosette Sep Cocktail (Stemcell Technologies #15061) at 50 μL/mL antibody/blood ratio for 20 min. with shaking at room temperature. The blood/antibody mixture was then diluted 1:2 with PBS (Pfizer media prep)/2% FBS (Sigma #F4135) and 30 mL of the mixture was layered onto 15 mL Ficoll-Hypaque (GE Healthcare #17-1440-03) in 50 mL conical tubes. The tubes were then centrifuged at 1200×g for 20 min. at room temperature with no brake. Following centrifugation the T cells formed a buffy coat between the Ficoll-Hypaque and plasma layers. The plasma above the buffy coats was removed to within 5 mm of the buffy coat using a sterile Pasteur pipette. The buffy coats were then collected into fresh sterile 50 mL conical tubes containing 25 mL PBS/2% FBS (2 buffy coats per 50 mL conical). PBS/2% FBS was added to the buffy coat cells such that the final volume in the tube was 50 mL. The tubes were then centrifuged at 200×g for 15 min. at room temperature. The supernatant was discarded and the pellet re-suspended in 10-20 mL of DMEM (Pfizer media prep) Assay media/0.2% BSA (Miltenyi #130-091-376). A differential cell count was performed using a haemacytometer and cells were diluted to 1.1×10^6 T cells/ml in DMEM/0.2% BSA media. Compounds (10 mM-0.3 μM) were diluted with Hanks Balanced Salt Solution (HBSS) (Sigma #H6648) at 1:100 dilution. Immediately following cell isolation and compound dilution, 90 μl/well of T cells (˜1×10^6/ml) in assay medium (DMEM+0.2% BSA) was added to the VWR Deep well V bottom plate (#3906-520-300). 10 μl/well of compound (final concentration range of 10 μM-0.3 nM with 0.1% DMSO) or 0.1% DMSO in HBSS as controls was added to the appropriate wells. Plates were incubated for 1 hour at 37° C., 5% CO2 incubator. 10 μl of 3.3 μg/mL rhIL-2 (R&D Systems #202-IL) was added to the cells (300 ng/ml final assay concentration). Wells containing T cells, medium with 0.1% DMSO and no rhIL-2 were used as background controls. Plates were incubated for 15 min at 37° C. After rhIL-2 stimulation, 800 μL of cold PBS/0.1% BSA was added and the plates were centrifuged at 1400 rpm for 5 min at 4° C. Supernatant was aspirated and 100 μL of ice-cold MSD lysis buffer containing protease and phosphatase inhibitors from Phospho-STAT5a/b Tyr694 assay kit (Meso-Scale Discovery #K150IGD) was added to the cell pellet. Plates were shaken for 30 min. at 4° C. and then frozen overnight. The following day, cell lysates were assayed using the MSD ELISA kit protocol for detection of pSTAT5.
Data were collected and transformed into percent inhibition and calculated using the following formula: […]

[2] = tested on: rhIFNγ stimulated STAT-3 phosphorylation in the A549 human epithelial cell line; test: A549 Cell Assay: Inhibition of pSTAT3; assay type: cell-based; conditions: Homo sapiens; A549 cells
Outline: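 Percent inhibition of STAT3 Tyr705 phosphorylation was measured by MSD immunoassay of cell lysates. A549 cells were given compound for 1 h at 37° C (final 0.3 nM to 10 μM, 0.1% DMSO, in 0.2% BSA DMEM), followed by 30 min of rhIFNγ stimulation at 20 ng/mL final. Unstimulated DMSO wells served as background.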

JAK3 = JAK3 (Homo sapiens (Human), UniProt P52333); test: JAK Caliper Enzyme Assay at 1 mM ATP (JAK3); assay type: biochemical; conditions: Caliper assay at 1 mM ATP
Chain of JAK3 (P52333 whole entry): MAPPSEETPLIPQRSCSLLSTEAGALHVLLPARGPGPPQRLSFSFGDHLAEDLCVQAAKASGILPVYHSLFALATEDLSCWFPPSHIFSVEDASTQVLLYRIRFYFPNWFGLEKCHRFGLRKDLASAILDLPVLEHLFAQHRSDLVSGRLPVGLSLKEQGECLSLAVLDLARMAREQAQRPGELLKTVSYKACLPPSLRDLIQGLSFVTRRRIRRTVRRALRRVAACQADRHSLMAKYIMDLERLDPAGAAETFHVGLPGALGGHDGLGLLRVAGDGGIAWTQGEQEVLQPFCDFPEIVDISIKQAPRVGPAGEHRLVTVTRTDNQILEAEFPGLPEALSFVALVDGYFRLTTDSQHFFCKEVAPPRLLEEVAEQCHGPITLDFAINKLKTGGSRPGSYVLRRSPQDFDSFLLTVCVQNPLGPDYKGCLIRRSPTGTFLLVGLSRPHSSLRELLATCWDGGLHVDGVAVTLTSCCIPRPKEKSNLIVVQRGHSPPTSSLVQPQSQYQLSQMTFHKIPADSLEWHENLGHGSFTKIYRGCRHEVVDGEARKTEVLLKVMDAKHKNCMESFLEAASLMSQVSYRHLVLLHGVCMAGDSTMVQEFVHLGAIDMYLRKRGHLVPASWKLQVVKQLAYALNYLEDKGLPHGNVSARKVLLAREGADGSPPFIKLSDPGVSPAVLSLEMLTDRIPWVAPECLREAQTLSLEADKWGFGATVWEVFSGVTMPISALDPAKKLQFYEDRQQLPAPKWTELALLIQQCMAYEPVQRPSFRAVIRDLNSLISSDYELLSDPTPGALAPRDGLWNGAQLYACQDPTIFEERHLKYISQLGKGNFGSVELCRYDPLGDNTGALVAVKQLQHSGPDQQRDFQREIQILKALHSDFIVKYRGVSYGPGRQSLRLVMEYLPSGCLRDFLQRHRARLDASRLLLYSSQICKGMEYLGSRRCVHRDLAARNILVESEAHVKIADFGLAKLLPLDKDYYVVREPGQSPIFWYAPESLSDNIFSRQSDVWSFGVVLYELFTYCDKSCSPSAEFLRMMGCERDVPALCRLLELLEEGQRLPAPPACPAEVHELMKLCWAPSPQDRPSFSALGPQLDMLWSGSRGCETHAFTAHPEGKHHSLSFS

TYK2 = TYK2 (Homo sapiens (Human), UniProt P29597); test: JAK Caliper Enzyme Assay at 1 mM ATP (TYK2); assay type: biochemical; conditions: Caliper assay at 1 mM ATP
Chain of TYK2 (P29597 whole entry): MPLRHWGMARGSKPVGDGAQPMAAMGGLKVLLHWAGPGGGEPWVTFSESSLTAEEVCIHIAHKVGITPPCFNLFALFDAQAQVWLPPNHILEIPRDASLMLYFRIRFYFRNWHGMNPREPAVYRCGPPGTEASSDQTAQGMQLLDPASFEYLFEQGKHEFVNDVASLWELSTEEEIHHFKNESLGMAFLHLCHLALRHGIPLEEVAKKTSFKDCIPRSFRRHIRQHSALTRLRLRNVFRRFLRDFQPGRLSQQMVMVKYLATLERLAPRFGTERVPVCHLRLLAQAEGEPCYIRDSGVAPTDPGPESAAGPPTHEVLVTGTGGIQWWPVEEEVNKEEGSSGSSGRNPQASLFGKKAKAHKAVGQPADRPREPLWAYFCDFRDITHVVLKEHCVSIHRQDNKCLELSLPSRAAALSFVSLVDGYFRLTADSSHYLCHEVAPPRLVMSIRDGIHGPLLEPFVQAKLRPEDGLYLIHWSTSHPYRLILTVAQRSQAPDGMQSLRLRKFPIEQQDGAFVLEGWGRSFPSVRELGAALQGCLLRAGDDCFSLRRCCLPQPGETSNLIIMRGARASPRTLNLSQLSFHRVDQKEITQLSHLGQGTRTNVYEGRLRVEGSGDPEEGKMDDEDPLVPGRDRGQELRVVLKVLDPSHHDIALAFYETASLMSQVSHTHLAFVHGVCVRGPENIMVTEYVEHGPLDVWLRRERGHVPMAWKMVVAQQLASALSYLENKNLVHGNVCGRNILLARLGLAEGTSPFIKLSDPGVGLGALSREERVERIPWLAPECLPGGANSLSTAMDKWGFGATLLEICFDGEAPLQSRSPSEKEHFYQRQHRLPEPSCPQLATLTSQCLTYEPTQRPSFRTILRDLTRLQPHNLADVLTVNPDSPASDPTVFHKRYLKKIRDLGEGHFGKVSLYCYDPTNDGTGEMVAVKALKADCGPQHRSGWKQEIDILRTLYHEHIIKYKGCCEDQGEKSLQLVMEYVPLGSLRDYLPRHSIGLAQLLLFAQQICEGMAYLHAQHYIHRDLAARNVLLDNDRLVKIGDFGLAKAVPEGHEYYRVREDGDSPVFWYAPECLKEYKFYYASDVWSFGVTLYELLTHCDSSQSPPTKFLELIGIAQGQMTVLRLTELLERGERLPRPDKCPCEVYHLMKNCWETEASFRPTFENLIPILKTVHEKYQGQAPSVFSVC

JAK1 = JAK1 (Homo sapiens (Human), UniProt P23458); test: JAK Caliper Enzyme Assay at 1 mM ATP (JAK1); assay type: biochemical; conditions: Caliper assay at 1 mM ATP
Chain of JAK1 (P23458 whole entry): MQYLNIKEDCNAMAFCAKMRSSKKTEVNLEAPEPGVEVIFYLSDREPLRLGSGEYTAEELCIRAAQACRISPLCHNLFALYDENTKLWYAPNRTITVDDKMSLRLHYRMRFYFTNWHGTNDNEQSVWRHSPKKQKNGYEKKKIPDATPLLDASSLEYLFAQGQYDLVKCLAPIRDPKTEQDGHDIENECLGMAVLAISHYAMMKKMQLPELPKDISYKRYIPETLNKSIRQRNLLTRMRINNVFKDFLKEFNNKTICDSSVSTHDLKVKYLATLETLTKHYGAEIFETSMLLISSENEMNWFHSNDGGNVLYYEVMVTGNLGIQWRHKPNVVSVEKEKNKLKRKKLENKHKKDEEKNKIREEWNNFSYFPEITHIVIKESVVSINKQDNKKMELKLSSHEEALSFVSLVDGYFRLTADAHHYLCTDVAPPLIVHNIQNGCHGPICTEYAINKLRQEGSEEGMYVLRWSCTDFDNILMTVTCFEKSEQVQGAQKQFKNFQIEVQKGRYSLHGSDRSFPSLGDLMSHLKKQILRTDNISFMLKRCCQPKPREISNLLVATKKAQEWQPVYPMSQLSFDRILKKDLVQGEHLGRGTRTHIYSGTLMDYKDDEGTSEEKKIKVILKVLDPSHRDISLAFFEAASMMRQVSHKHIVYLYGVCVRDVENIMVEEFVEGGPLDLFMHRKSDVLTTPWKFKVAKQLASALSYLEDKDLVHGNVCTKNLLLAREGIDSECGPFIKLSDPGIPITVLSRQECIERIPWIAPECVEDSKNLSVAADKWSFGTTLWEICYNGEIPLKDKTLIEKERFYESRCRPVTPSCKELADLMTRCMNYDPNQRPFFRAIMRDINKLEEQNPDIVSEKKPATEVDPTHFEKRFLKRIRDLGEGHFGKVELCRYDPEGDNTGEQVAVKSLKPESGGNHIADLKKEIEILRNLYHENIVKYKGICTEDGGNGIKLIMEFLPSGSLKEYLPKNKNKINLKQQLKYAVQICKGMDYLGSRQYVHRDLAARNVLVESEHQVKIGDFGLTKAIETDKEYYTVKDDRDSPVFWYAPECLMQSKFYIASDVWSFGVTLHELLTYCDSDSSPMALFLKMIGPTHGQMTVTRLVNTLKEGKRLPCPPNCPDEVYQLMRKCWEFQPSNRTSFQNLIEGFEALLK

JAK2 = JAK2 (Homo sapiens (Human), UniProt O60674); test: JAK Caliper Enzyme Assay at 1 mM ATP (JAK2); assay type: biochemical; conditions: Caliper assay at 1 mM ATP
Chain of JAK2 (O60674 whole entry): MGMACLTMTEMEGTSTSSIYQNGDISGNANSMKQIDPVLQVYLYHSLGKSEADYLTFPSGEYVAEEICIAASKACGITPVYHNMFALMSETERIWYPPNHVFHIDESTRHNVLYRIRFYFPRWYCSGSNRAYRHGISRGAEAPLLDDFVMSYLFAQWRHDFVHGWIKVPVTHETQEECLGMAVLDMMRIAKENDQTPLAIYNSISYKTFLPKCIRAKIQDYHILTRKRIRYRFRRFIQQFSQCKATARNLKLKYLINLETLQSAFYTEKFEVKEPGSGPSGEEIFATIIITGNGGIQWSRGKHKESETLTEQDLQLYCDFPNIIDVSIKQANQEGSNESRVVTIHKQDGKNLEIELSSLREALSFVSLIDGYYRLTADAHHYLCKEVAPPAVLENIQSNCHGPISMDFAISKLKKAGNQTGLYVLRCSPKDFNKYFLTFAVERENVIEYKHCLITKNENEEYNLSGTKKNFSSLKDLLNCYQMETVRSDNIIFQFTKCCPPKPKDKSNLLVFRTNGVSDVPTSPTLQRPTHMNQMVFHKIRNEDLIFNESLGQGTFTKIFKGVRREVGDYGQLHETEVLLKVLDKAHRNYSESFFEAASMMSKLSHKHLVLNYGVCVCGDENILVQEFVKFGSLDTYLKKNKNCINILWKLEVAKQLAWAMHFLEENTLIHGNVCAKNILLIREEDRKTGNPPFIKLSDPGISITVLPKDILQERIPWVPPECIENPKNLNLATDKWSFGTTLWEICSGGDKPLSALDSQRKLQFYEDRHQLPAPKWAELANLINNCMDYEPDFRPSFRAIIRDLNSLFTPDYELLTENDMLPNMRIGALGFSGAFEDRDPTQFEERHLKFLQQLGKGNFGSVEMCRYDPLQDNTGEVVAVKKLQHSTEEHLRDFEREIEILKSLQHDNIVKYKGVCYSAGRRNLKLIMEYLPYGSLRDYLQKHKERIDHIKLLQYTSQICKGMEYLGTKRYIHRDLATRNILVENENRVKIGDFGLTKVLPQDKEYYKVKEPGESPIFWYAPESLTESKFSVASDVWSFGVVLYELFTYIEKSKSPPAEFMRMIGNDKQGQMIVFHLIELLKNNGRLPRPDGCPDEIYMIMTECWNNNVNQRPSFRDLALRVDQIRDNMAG

SMILES	IC50 [1]	IC50 [2]	IC50 (JAK3)	IC50 (TYK2)	IC50 (JAK1)	IC50 (JAK2)
Cc1ccc(-c2nnc(-c3n[nH]c4cc(-c5cc(F)c(O)cc5CC(F)(F)F)nc(NCc5ccccc5N(C)S(C)(=O)=O)c34)[nH]2)cn1 [Example 166, N-{2-[({6-[5-Fluoro-4-hydroxy-2-(2,2,2-trifluoroethyl)phenyl]-3-[5-(6-methylpyridin-3-yl)-4H-1,2,4-triazol-3-yl]-1H-pyrazolo[4,3-c]pyridin-4-yl}amino)methyl]phenyl}-N-methylmethanesulfonamide]	591 nM	697 nM				
CN(c1ccccc1CNc1nc(-c2cc(F)c(O)cc2CC(F)(F)F)nc2[nH]nc(C(N)=O)c12)S(C)(=O)=O [Example 98, 6-(5-Fluoro-4-hydroxy-2-(2,2,2-trifluoroethyl)phenyl)-4-((2-(N-methylmethylsulfonamido)benzyl)amino)-1H-pyrazolo[3,4-d]pyrimidine-3-carboxamide]	324 nM	724 nM				
CC(=O)N1CCc2[nH]c(-c3n[nH]c4nc(-c5cc(F)c(O)cc5CC(F)(F)F)nc(NCc5cc(O)ccc5N(C)S(C)(=O)=O)c34)nc2C1 [Example 170, N-{2-[({3-(5-Acetyl-4,5,6,7-tetrahydro-1H-imidazo[4,5-c]pyridin-2-yl)-6-[5-fluoro-4-hydroxy-2-(2,2,2-trifluoroethyl)phenyl]-1H-pyrazolo[3,4-d]pyrimidin-4-yl}amino)methyl]-4-hydroxyphenyl}-N-methylmethanesulfonamide]	767 nM	1360 nM				
CN(c1ccccc1CNc1nc(-c2cc(F)c(O)cc2CC(F)(F)F)cc2[nH]nc(C(N)=O)c12)S(C)(=O)=O [Example 77, 6-[5-Fluoro-4-hydroxy-2-(2,2,2-trifluoroethyl)phenyl]-4-({2-[methyl(methylsulfonyl)amino]benzyl}amino)-1H-pyrazolo[4,3-c]pyridine-3-carboxamide]	59.9 nM	32.9 nM				
CN(c1ccc(O)cc1CNc1nc(-c2cc(F)c(O)cc2CC(F)(F)F)cc2[nH]nc(C(N)=O)c12)S(C)(=O)=O [Example 92, 6-[5-Fluoro-4-hydroxy-2-(2,2,2-trifluoroethyl)phenyl]-4-({5-hydroxy-2-[methyl(methylsulfonyl)amino]benzyl}amino)-1H-pyrazolo[4,3-c]pyridine-3-carboxamide]	343 nM	398 nM				
CCc1cc(O)c(F)cc1-c1cc2[nH]nc(C(=O)Nc3ccc(C)nc3)c2c(NCc2ccccc2N(C)S(C)(=O)=O)n1 [Example 56, 6-(2-ethyl-5-fluoro-4-hydroxyphenyl)-4-({2-[methyl(methylsulfonyl)amino]benzyl}amino)-N-(6-methylpyridin-3-yl)-1H-pyrazolo[4,3-c]pyridine-3-carboxamide]	53.4 nM	277 nM				
CCc1cc(O)c(F)cc1-c1cc2[nH]ncc2c(NCc2cc(Cl)ccc2N(C)S(C)(=O)=O)n1 [Example 133, N-[4-chloro-2-({[6-(2-ethyl-5-fluoro-4-hydroxyphenyl)-1H-pyrazolo[4,3-c]pyridin-4-yl]amino}methyl)phenyl]-N-methylmethanesulfonamide hydrochloride]	34.7 nM	10.1 nM				
CCc1cc(O)c(F)cc1-c1cc2[nH]nc(C(=O)NC)c2c(NCc2ccccc2N(C)S(C)(=O)=O)n1 [Example 19, 6-(2-ethyl-5-fluoro-4-hydroxyphenyl)-N-methyl-4-({2-[methyl(methylsulfonyl)amino]benzyl}amino)-1H-pyrazolo[4,3-c]pyridine-3-carboxamide]	20.2 nM	11.9 nM				
CNC(=O)c1n[nH]c2cc(-c3cc(F)c(O)cc3CC(F)(F)F)nc(NCc3ccccc3N(C)S(C)(=O)=O)c12 [Example 20, 6-[5-fluoro-4-hydroxy-2-(2,2,2-trifluoroethyl)phenyl]-N-methyl-4-({2-[methyl(methylsulfonyl)amino]benzyl}amino)-1H-pyrazolo[4,3-c]pyridine-3-carboxamide]	31.9 nM	18.8 nM	95.3 nM	20.9 nM	3.6 nM	16.6 nM
CCc1cc(O)c(F)cc1-c1cc2[nH]ncc2c(N(C)Cc2ccccc2N(CC)S(C)(=O)=O)n1 [Example 145, N-Ethyl-N-[2-({[6-(2-ethyl-5-fluoro-4-hydroxyphenyl)-1H-pyrazolo[4,3-c]pyridin-4-yl](methyl)amino}methyl)phenyl]methanesulfonamide hydrochloride]	157 nM	15.7 nM				
CCc1cc(O)c(F)cc1-c1cc2[nH]nc(C(=O)NC)c2c(NCc2cc(O)ccc2N(C)S(C)(=O)=O)n1 [Example 31, 6-(2-Ethyl-5-fluoro-4-hydroxyphenyl)-4-({5-hydroxy-2-[methyl (methylsulfonyl)amino]benzyl}amino)-N-methyl-1H-pyrazolo[4,3-c]pyridine-3-carboxamide]	48.2 nM	74 nM				
Cc1ccc(NC(=O)c2n[nH]c3cc(-c4cc(F)c(O)cc4CC(F)(F)F)nc(NCc4ccccc4N(C)S(C)(=O)=O)c23)cn1 [Example 76, 6-[5-Fluoro-4-hydroxy-2-(2,2,2-trifluoroethyl)phenyl]-4-({2-[methyl(methylsulfonyl)amino]-benzyl}amino)-N-(6-methylpyridin-3-yl)-1H-pyrazolo[4,3-c]pyridine-3-carboxamide]	121 nM	325 nM				
CCc1cc(O)c(F)cc1-c1cc2[nH]ncc2c(NCc2cc(C)ccc2N(C)S(C)(=O)=O)n1 [Example 132, N-[2-({[6-(2-ethyl-5-fluoro-4-hydroxyphenyl)-1H-pyrazolo[4,3-c]pyridin-4-yl]amino}methyl)-4-methylphenyl]-N-methylmethanesulfonamide hydrochloride]	206 nM	256 nM				
CCc1cc(O)c(F)cc1-c1nc(NCc2ccccc2N(C)S(C)(=O)=O)c2c(C(=O)NC)n[nH]c2n1 [Example 93, 6-(2-Ethyl-5-fluoro-4-hydroxyphenyl)-N-methyl-4-((2-(N-methylmethylsulfonamido)benzyl)amino)-1H-pyrazolo[3,4-d]pyrimidine-3-carboxamide]	40.4 nM	31.9 nM				
CCc1cc(O)c(F)cc1-c1cc2[nH]ncc2c(NCc2ccccc2N(C)S(C)(=O)=O)n1 [Example 131, N-[2-({[6-(2-Ethyl-5-fluoro-4-hydroxyphenyl)-1H-pyrazolo[4,3-c]pyridin-4-yl]amino}methyl)phenyl]-N-methylmethanesulfonamide]	24.3 nM	7.4 nM				
